Assay results from patent US20200009135A1, “THERAPEUTIC APPLICATIONS OF MALT1 INHIBITORS” (MEDIVIR AB, priority 2017, published 2020).

Legend:
[1] = test system: IL-2 expression in Jurkat (E6-1) cells; assay: IL-2 expression assay (down-stream MALT1 activity, Jurkat E6-1); type: cell-based; conditions: Homo sapiens; Jurkat E6-1, PMA/Ionomycin stimulation, 24 hours
Protocol: Down-stream MALT1 activity was measured by PMA/lonomycin-induced expression of IL-2 in Jurkat (E6-1) cells. Compounds were distributed in a 96 well plate, 8-point concentration series, 1:3 dilution. Jurkat clone E6-1, 4×10^4 cells/well, were added, and stimulated by PMA/lonomycin (1:500 dilution) for 24 hours at 37° C. Measurement was performed using a MesoScale Sector S600 with the Human IL-2 Tissue Culture kit according to the manufacturers recommendation.

Full-length MALT1 enzyme = target: T1, Full-length MALT1 enzyme (Homo sapiens, UniProt Q9UDY8); assay: MALT1 biochemical assay; conditions: 2 nM enzyme, 50 μM Ac-Leu-Arg-Ser-Arg-AMC substrate
T1 construct: Full-length MALT1 enzyme at 2 nM was assayed in 50 mM HEPES
T1 sequence (Q9UDY8 1-824): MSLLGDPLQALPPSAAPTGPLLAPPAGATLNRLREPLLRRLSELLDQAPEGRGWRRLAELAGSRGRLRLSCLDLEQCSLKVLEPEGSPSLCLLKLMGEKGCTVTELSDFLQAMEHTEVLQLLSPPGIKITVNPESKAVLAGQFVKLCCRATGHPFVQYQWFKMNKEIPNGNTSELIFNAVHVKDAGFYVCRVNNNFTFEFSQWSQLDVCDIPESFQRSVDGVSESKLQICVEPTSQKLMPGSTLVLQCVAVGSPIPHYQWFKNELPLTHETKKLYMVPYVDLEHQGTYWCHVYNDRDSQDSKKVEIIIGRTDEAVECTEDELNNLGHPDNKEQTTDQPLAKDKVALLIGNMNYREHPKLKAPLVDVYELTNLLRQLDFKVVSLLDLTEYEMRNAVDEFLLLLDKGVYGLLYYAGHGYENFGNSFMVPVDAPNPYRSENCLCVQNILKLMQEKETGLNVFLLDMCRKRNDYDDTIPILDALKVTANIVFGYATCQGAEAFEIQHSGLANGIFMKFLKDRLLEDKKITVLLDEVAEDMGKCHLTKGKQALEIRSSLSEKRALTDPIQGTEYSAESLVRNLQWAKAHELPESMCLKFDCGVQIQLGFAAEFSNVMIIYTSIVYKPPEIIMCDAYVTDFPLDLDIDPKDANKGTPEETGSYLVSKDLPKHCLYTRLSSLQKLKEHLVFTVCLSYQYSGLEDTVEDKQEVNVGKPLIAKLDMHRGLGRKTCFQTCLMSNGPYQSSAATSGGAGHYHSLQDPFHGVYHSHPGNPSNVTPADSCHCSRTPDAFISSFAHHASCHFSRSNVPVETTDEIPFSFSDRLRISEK
Protocol: Full-length MALT1 enzyme at 2 nM was assayed in 50 mM HEPES, 100 mM NaCl, 0.9 M NaCitrate, 1 mM EDTA, pH 7.5, with 50 μM Ac-Leu-Arg-Ser-Arg-AMC as substrate. Compound was added in an 11-point concentration series from 100 μM to 1 nM in half-log dilution.
Compounds were distributed in 384 well plates by Echo550, and the assay was run with fluorescence readings at 460 nm, every 2 minutes for 60 minutes.

MALT1 = target: T2, MALT1 (Homo sapiens, UniProt Q9UDY8); assay: HOIL1 cleavage assay (in-cell MALT1 protease activity, Jurkat E6-1); type: cell-based; conditions: Jurkat E6-1, PMA/Ionomycin-induced cleavage of HOIL1, 60 minutes
T2 construct: endogenous in cells; host or cells: Jurkat clone E6-1 (ATCC)
T2 sequence (Q9UDY8 1-824): T1 sequence (Q9UDY8 1-824)
Protocol: In-cell MALT1 protease activity, was measured as inhibition of PMA/lonomycin-induced cleavage of HOIL1. Day 1 0.75×10^6 cells/well were seeded in a 48 well plate. Day 2 cells were stimulated by PMA/lonomycin (1:500 dilution) with addition of vehicle or compound in a 5-point concentration series, 1:3 dilution.

Row | SMILES | IC50 [1] [µM] | IC50 (Full-length MALT1 enzyme) [nM] | IC50 (MALT1) [µM]
1 | CO[C@@H](C)c1c(NC(=O)Nc2ccnc(C(F)(F)F)c2)cnc2cc(Cl)nn12 [Example 3, (S)-1-(2-Chloro-7-(1-methoxyethyl)pyrazolo[1,5-a]pyrimidin-6-yl)-3-(2-(trifluoromethyl)pyridin-4-yl)urea] | 0.02 |  | 
2 | CO[C@@H](C)c1c(NC(=O)Nc2cnc(-n3cc(CN)cn3)c(Cl)c2)cnc2cc(Cl)nn12 [Example 1, (S)-1-(6-(4-(aminomethyl)-1H-pyrazol-1-yl)-5-chloropyridin-3-yl)-3-(2-chloro-7-(1-methoxyethyl)pyrazolo[1,5-a]pyrimidin-6-yl)urea] | 0.03 | 37.5 | 0.04
